In patent US20230348453A1, “HALOGENATED-HETEROARYL AND OTHER HETEROCYCLIC KINASE INHIBITORS, AND USES THEREOF” (iOmx Therapeutics AG, priority 2020, published 2023):
Like-named read-outs stand apart in the source and are kept apart here.

Columns and labels:
in vitro [1] = settings: mouse, microsomes
BRAF = BRAF (Homo sapiens (Human), UniProt P15056); test: biochemical; settings: read-out: BRAF residual activity (%) at 1 μM, 1 μM
[2] = microsomes
[3] = microsomes; remark: listed apart in the source
[4] = in vivo
in vitro [5] = settings: human, microsomes
[6] = Full pharmacokinetic study in mice; settings: for half-life: male, CD1, mouse, plasma
[7] = Murine plasma protein binding
[8] = mouse, in vivo, po, 30 mg/kg
RET = RET (Homo sapiens (Human), UniProt P07949); test: biochemical; settings: read-out: RET residual activity (%) at 1 μM, 1 μM
in vivo = settings: male, CD1, mouse, po, 30 mg/kg
HCK = HCK (Homo sapiens (Human), UniProt P08631); format: biochemical; settings: Kinase Profiler
in vitro [9] = settings: dog, MDCK, MDCK-wild type cells
[10] = Screening PK in mice after 30 mg/kg po; settings: plasma, po, 30 mg/kg
CSF1R = CSF1R (Homo sapiens (Human), UniProt P07333); format: biochemical; settings: Kinase Profiler
[11] = Human plasma-protein binding
MDR1 (P-gp) = MDR1 (P-gp) (Homo sapiens (Human), UniProt P08183); test: in vitro; settings: dog, MDCK-MDR1, MDCK-MDR1 cells
AML = settings: administered intraperitoneally; cited from earlier work
[12] = test system: MPAL-associated AML cell lines (including MOLM-13 and MV4-11); settings: chemical inhibition of SIK3; cited from earlier work
[13] = Plasma stability in human plasma; format: in vitro ADME; settings: read-out: plasma stability T1/2
[14] = test system: NFKB activity in MC38 cells; test: TNF-induced NFKB activity (NFKB-dependent luciferase reporter); settings: 10 ng/ml rMuTNF
KASUMI-1 cell line [15] = test: Cell killing of pMEF2C-positive KASUMI-1 cell line; format: cell-based
HCT116 cells = test: TNF-sensitised cell viability assay (CellTiter-Glo); settings: Homo sapiens, HCT-116, read-out: HCT116 IC50 (at 10 ng/ml rHuTNF)
[16] = test system: MC38 colorectal carcinoma tumours; test: MC38 syngeneic mouse tumour model (Example 8.1); settings: MC38; 100 mg/Kg, BID po
[17] = Human hepatocyte stability; format: in vitro ADME; settings: human, hepatocytes
HEL cell line [18] = test: Growth inhibition (GI50) of AML cell lines; format: cell-based; settings: Homo sapiens, pMEF2C-negative, read-out: GI50 against HEL cell line
panel of AML cell lines = test: Lysis of a panel of AML cell lines; format: cell-based; settings: cell lines that have phosphorylated MEF2C protein
HEL cell line [19] = test: Cell killing of pMEF2C-negative HEL cell line; format: cell-based
[20] = test system: HDAC4 phosphorylation in PANC-1 cells; test: HDAC4 phosphorylation (Meso Scale Discovery assay); settings: 10 ng/mL rHuTNF
MV4-11 cell line = test: Growth inhibition (GI50) of AML cell lines; format: cell-based; settings: Homo sapiens, MV4-11, read-out: GI50 against MV4-11 cell line
[21] = Mouse hepatocyte stability; format: in vitro ADME; settings: hepatocytes
[22] = Plasma stability in mouse plasma; format: in vitro ADME; settings: read-out: plasma stability T1/2
[23] = test system: NFKB activity in PANC-1 cells; test: TNF-induced NFKB activity (NFKB-dependent luciferase reporter); settings: 10 ng/ml rHuTNF
[24] = test system: MC38 murine tumour cell line; test: TNF-sensitised cell viability assay (CellTiter-Glo); settings: Mus musculus
[25] = Metabolite profile in hepatocytes / in vivo
Text: Metabolites are identified using high-resolution mass spectrometry.

KASUMI-1 cell line [26] = test: Growth inhibition (GI50) of AML cell lines; format: cell-based
[27] = in vivo; cited from earlier work
K562 human CML tumours = settings: PO once a day for 10 days, 5-days-on and 2-days off; cited from earlier work
SIK3 = SIK3 (Homo sapiens (Human), UniProt Q9Y2K2); settings: read-out: SIK3 IC50
SIK2 = SIK2 (Homo sapiens (Human), UniProt Q9H0K1); settings: read-out: SIK2 IC50
ABL1 wt = ABL1 wt (Homo sapiens (Human), UniProt P00519); format: biochemical
SIK1 = SIK1 (Homo sapiens (Human), UniProt P57059); settings: read-out: SIK1 IC50
SRC (GST-HIS-tag) = SRC (GST-HIS-tag) (Homo sapiens (Human), UniProt P12931); format: biochemical

Chain of CSF1R (P07333 20-972 limits assumed): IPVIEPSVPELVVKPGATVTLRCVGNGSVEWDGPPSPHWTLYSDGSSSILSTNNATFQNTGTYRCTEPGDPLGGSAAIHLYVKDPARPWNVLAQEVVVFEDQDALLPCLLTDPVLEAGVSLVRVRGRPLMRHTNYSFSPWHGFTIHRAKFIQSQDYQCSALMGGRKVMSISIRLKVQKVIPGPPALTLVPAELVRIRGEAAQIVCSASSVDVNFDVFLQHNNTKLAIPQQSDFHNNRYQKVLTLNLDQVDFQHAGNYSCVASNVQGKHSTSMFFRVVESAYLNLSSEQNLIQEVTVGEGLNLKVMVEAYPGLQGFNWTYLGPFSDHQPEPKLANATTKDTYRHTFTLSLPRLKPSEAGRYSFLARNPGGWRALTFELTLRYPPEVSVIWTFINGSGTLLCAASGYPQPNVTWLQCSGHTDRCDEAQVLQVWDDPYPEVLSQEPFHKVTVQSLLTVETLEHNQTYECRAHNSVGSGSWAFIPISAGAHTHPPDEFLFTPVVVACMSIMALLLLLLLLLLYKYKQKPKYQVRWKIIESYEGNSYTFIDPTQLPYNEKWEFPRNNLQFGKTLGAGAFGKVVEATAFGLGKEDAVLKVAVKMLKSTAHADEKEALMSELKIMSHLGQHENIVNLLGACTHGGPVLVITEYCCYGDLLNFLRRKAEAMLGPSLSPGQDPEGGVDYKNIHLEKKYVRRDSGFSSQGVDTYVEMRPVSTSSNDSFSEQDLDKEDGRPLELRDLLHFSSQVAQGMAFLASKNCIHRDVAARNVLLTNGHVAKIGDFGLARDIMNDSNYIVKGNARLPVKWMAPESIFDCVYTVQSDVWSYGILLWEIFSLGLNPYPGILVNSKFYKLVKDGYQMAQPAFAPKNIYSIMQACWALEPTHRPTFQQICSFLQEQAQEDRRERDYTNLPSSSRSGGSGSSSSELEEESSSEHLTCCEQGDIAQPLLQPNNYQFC
Chain of ABL1 wt (P00519 118-535 limits assumed): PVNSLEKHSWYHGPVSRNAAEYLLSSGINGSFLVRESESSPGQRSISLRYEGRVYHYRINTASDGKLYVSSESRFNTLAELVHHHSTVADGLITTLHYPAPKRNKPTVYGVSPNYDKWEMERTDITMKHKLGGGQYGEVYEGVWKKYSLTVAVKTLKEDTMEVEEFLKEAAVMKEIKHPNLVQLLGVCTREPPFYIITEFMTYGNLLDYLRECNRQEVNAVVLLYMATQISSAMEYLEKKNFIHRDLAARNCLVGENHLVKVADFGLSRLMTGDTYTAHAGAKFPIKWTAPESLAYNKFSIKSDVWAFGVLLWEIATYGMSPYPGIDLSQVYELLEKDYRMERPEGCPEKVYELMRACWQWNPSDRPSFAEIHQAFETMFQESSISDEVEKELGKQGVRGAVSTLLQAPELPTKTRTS
Chain of RET (P07949 29-1114 limits assumed): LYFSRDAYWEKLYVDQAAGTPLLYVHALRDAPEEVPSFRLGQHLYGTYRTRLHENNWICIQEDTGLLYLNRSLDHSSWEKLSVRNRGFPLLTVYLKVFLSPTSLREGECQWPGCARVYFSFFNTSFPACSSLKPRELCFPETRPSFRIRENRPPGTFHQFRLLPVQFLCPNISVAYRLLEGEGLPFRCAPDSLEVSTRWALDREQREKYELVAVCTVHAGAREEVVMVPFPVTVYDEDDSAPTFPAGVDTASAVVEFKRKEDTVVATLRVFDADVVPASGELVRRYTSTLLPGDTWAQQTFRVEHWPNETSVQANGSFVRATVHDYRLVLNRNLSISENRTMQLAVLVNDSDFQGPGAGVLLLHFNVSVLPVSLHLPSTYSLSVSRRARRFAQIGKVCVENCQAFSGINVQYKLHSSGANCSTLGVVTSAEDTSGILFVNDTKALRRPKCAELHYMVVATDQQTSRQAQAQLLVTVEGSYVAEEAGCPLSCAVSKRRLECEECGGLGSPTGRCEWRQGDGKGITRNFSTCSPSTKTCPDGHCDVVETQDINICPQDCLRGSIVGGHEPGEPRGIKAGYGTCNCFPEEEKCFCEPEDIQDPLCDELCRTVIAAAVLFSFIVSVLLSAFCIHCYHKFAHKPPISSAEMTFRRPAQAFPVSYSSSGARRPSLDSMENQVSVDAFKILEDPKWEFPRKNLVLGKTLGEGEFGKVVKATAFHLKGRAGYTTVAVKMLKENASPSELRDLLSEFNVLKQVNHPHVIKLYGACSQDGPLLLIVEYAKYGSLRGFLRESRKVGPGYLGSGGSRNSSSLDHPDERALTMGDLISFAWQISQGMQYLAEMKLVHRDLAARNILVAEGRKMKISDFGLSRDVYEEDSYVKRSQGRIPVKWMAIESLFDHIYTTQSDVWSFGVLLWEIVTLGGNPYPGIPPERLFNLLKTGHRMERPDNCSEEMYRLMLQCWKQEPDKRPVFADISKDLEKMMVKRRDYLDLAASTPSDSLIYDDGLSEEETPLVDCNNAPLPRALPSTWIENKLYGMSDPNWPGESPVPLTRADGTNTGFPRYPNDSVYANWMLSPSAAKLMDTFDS

Q: For `Cc1nc(Nc2ncc(C(=O)Nc3c(Cl)ccnc3C)s2)cc(N2CCN(CCO)CC2)n1` [Compound B3, N-(4-chloro-2-methylpyridin-3-yl)-2-((6-(4-(2-hydroxyethyl)piperazin-1-yl)-2-methylpyrimidin-4-yl)amino)thiazole-5-carboxamide], which half-life (in vitro [1]) is on record?
A: Its half-life is 1.03 h.

Q: What about the remaining activity at 1 µM (BRAF) of the same compound?
A: Its remaining activity at 1 µM is roughly 50%.

Q: What about the Mouse liver microsomal stability, Intrinsic clearance (L/min/mg) [2] of the same compound?
A: Its Mouse liver microsomal stability, Intrinsic clearance (L/min/mg) is 22 µL/min/mg.

Q: What about the Human liver microsomal stability, Intrinsic clearance [3] of the same compound?
A: Its Human liver microsomal stability, Intrinsic clearance is 24 µL/min/mg.

Q: What about the “% AUCextrap, Total” value ([4]; male, CD1, mouse, po, 30 mg/kg) of the same compound?
A: The value was 14%.

Q: What about the half-life (in vitro [5]) of the same compound?
A: Its half-life is 0.967 h.

Q: What about the half-life ([6]; iv, 1 mg/kg) of the same compound?
A: Its half-life is 0.2 h.

Q: And the half-life ([6]; po, 30 mg/kg)?
A: The half-life was 2.4 h.

Q: What about the “Cmax (ng/ml), Total” value ([6]; mouse, in vivo) of the same compound?
A: Its value is 99 ng/mL.

Q: And the “t1/2 (h), Free” value ([6]; mouse, in vivo)?
A: The value was 2.4 h.

Q: And the “Murine plasma protein binding, Percentage unbound (%)” value ([7]; Table 5A)?
A: Its value is 11%.

Q: And the “Murine plasma protein binding, Percentage unbound (%)” value ([7]; Table 5.1A)?
A: Its value is 11%.

Q: And the “Plasma concentration after 6 h” value [8]?
A: Its value is 29 nM.

Q: What about the remaining activity at 1 µM (RET) of the same compound?
A: Its remaining activity at 1 µM is roughly 100%.

Q: What about the AUC(0-inf) (in vivo) of the same compound?
A: The AUC(0-inf) was 0.697 µM·h.

Q: What about the HCK residual activity (HCK) of the same compound?
A: The HCK residual activity was “less than 1%”.

Q: What about the Papp (in vitro [9]; Mean Papp A > B (10^−6 cm/s)) of the same compound?
A: Its Papp is 6.8 ×10⁻⁶ cm/s.

Q: What about the Papp (in vitro [9]; Mean Papp B > B (10^−6 cm/s)) of the same compound?
A: Its Papp is 20 ×10⁻⁶ cm/s.

Q: What about the concentration at 2 h ([10]; CD1, mouse, Free concentration (nM) at 2 hours, mice, 30 mg/kg po, 2 hours) of the same compound?
A: The concentration at 2 h was 13 nM.

Q: And the concentration at 7 h ([10]; CD1, mouse, Free concentration (nM) at 7 hours, mice, 30 mg/kg po, 7 hours)?
A: Its concentration at 7 h is 3 nM.

Q: What about the Cmax at 2 h ([10]; mouse) of the same compound?
A: The Cmax at 2 h was 56 ng/mL.

Q: What about the CSF1R residual activity (CSF1R) of the same compound?
A: The CSF1R residual activity was “less than 1%”.

Q: And the “Human plasma-protein binding, Percentage unbound (%)” value ([11]; Table 5A)?
A: Its value is 7%.

Q: What about the “Human plasma-protein binding, Percentage unbound (%)” value ([11]; Table 5.1A) of the same compound?
A: Its value is 7%.

Q: And the Papp (MDR1 (P-gp))?
A: The Papp was 20 ×10⁻⁶ cm/s.

Q: What about the Papp (MDR1 (P-gp); Mean Papp A > B (10^−6 cm/s)) of the same compound?
A: The Papp was less than 0.8 ×10⁻⁶ cm/s.

Q: For `COc1ccc(N2C(=O)N(c3c(C)cccc3Cl)Cc3cnc(Nc4ccc(C5CCN(C)CC5)cc4OC)nc32)nc1` [YKL-05-099], which AML progression (AML) is on record?
A: Its AML progression is “supressed AML progression in-vivo”.

Q: For HG-9-91-01, which “viability of AML cell lines” value [12] is on record?
A: The value was “strongly decreases viability”.

Q: What does the source list for `Cc1nc(Nc2ncc(C(=O)Nc3c(C)csc3Cl)s2)cc(N2CCN(CCO)CC2)n1` [Compound C7, N-(2-chloro-4-methylthiophen-3-yl)-2-((6-(4-(2-hydroxyethyl)piperazin-1-yl)-2-methylpyrimidin-4-yl)amino)thiazole-5-carboxamide]?
A: half-life (in vitro [1]): 0.217 h; microsomal CLint (in vitro [1]): 110 µL/min/mg; half-life [13]: > 2.5 h; Mouse liver microsomal stability, % Remaining at 40 min (%) [2]: 10%; Human liver microsomal stability, Intrinsic clearance [3]: 2.53e+08 µL/min/mg; Human liver microsomal stability, % Remaining at 40 min (%) [3]: 1%; Inhibition of NFKB activity (MC38) [14]: +; cell killing (KASUMI-1 cell line [15]): highly potent cell killing; % AUCextrap ([4]; male, CD1, mouse, iv, 1 mg/kg): 5.81%; % AUCextrap ([4]; male, CD1, mouse, po, 30 mg/kg): 0.45%; % AUCextrap, Free ([4]; male, CD1, mouse, po, 30 mg/kg): 11.24%; % AUCextrap, Total ([4]; male, CD1, mouse, po, 30 mg/kg): 11.24%; AUCinf (nM*h), Free ([4]; male, CD1, mouse, po, 30 mg/kg): 58.79 nM·h; AUClast (nM*h), Free ([4]; male, CD1, mouse, po, 30 mg/kg): 52.07 nM·h; Rsq, Free ([4]; mouse, po, 30 mg/kg): 0.99; Rsq, Total ([4]; mouse, po, 30 mg/kg): 0.99; half-life (in vitro [5]): 0.167 h; microsomal CLint (in vitro [5]): 142 µL/min/mg; Murine plasma protein binding, Percentage unbound (%) ([7]; Table 5A): 5%; Murine plasma protein binding, Percentage unbound (%) ([7]; Table 5.1A): 3%; recovery at 4 h ([7]; mouse): 87%; IC50 (HCT116 cells): < 100 nM; Body weight increase (%) [16]: 1.0%; Non-treatment related death [16]: 3/16; Tumour growth inhibition (%) [16]: 78%; half-life ([17]; read-out: Human hepatocyte stability, Half-life): 0.9 h; microsomal CLint ([17]; read-out: Human hepatocyte stability, Intrinsic clearance): 26 µL/min/mg; half-life ([17]; read-out: half-life in the presence of human hepatocytes (converted)): ~1 h; GI50 (HEL cell line [18]): ~5000 nM; lysis of AML cell lines (panel of AML cell lines): strong lysis; cell killing (HEL cell line [19]): low cell killing; Inhibition of HDAC4 phosphorylation ([20]; 3 h): +; Inhibition of HDAC4 phosphorylation ([20]; 3 h (Table 9C)): +; GI50 (MV4-11 cell line): 480 nM; AUC(0-inf) (in vivo): 1.31 µM·h; AUC(0-t) (in vivo): 1.16 µM·h; Cmax (in vivo): 474 ng/mL; MRT last (in vivo): 2.75 h; half-life (in vivo): 1.42 h; half-life [21]: 0.833 h; microsomal CLint ([21]; read-out: Mouse hepatocyte stability, Intrinsic clearance): 28 µL/min/mg; half-life [22]: > 2.5 h; HCK residual activity (HCK): less than 1%; Papp (in vitro [9]; Mean Papp A > B (10^−6 cm/s)): 9 ×10⁻⁶ cm/s; CSF1R residual activity (CSF1R): less than 1%; tolerable dose (BID by gavage, female C57BL/6, seven days): up to 100 mg/kg; HRD in vivo @BID (highest recommended dose, BID): 100 mg/kg; HRD in vivo @QD (highest recommended dose, QD): 100 mg/kg; Human plasma-protein binding, Percentage unbound (%) ([11]; Table 5A): <1%; Human plasma-protein binding, Percentage unbound (%) ([11]; Table 5.1A): 2%; recovery at 4 h ([11]; human): 75%; Inhibition of NFKB activity (PANC-1) ([23]; PANC-1 reporter cells): +; Inhibition of NFKB activity ([23]; PANC-1 reporter cells (Table 9C)): +; IC50 ([24]; MC-38, read-out: MC38 IC50 (at 100 ng/mL rMuTNF)): < 200 nM; EC50 ([24]; MC-38, read-out: mean EC50 of sensitising MC38 tumour cells to TNF-mediated killing): ~150 nM; Papp (MDR1 (P-gp); Mean Papp A > B (10^−6 cm/s)): 2 ×10⁻⁶ cm/s; quinone-imine reactive metabolite [25]: not observed; GI50 (KASUMI-1 cell line [26]; Homo sapiens, Kasumi 1, read-out: GI50 against KASUMI-1 cell line, pMEF2C-positive): ~2 nM; GI50 (KASUMI-1 cell line [26]; read-out: GI50 against KASUMI-1 cell line, pMEF2C-positive): 1.6 nM

Q: With `Cc1cn(-c2cc(NC(=O)c3ccc(C)c(Nc4nccc(-c5cccnc5)n4)c3)cc(C(F)(F)F)c2)cn1` [nilotinib] as the compound, how does the “terminal / elimination half-life” value [27] read?
A: The value was “approximately 17 hours”.

Q: With `Cc1ccc(NC(=O)c2ccc(CN3CCN(C)CC3)cc2)cc1Nc1nccc(-c2cccnc2)n1` [imatinib] as the compound, how does the “outcome in mice bearing K562 human CML tumours” value (K562 human CML tumours) read?
A: The value was “failed to produce a comparative response”.

Q: What does the source list for `Cc1nc(Nc2ncc(C(=O)Nc3c(C)noc3C)s2)cc(N2CCN(CCO)CC2)n1` [Compound C9]?
A: Mouse liver microsomal stability, Intrinsic clearance (L/min/mg) [2]: <14; Mouse liver microsomal stability, % Remaining at 40 min (%) [2]: 83%; Human liver microsomal stability, Intrinsic clearance [3]: <1.4e+07 µL/min/mg; Human liver microsomal stability, % Remaining at 40 min (%) [3]: 89%; IC50 (SIK3): 800 nM; IC50 (SIK2): 232 nM; Murine plasma protein binding, Percentage unbound (%) ([7]; Table 5A): 44%; IC50 (ABL1 wt): 27.4 nM; IC50 (SIK1): 169 nM; IC50 (SRC (GST-HIS-tag)): 6.44 nM; Human plasma-protein binding, Percentage unbound (%) ([11]; Table 5A): 6%
